In the supplement of paper PMC11616607 one finds drug sensitivity score data, which are given here for 31 molecules.

The first test relates to CAOV3. The test can be described thus: drug sensitivity score (DSS) from 5-point dose-response viability curve (DSS (area-under-curve based score)); higher = more sensitive (stronger growth inhibition or killing); extreme values may be limits of the assay. The settings on record: exposure time: 72 h; concentration range: 5 concentrations over 10,000-fold range. The method in brief:
(§1)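 Each cell line and drug received a drug sensitivity score from Breeze software, where higher means more sensitive. Zero stands for no response. Scores came from CellTiter-Glo viability readings of ovarian cancer and normal ovarian cells, 1,500 per well in 384-well plates, after 3 days at 37°C, 5% CO2 with drugs at five concentrations over a 10,000-fold range.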
With `COc1ccc(-c2ccc3c(N4CCOC[C@@H]4C)nc(N4CCOC[C@@H]4C)nc3n2)cc1CO` [AZD8055], the drug sensitivity score is 15.6.
Still for that read-out and setting: with `N#Cc1ccc2[nH]c(O)c(-c3ccc(CN4CCOCC4)cn3)c2c1` [AZD-1080] the figure was 0.9; with `Cc1ncc(-c2ccnc(Nc3ccc(S(C)(=O)=O)cc3)n2)n1C(C)C` [AZD-5438], 4.4.
Still for that read-out and setting: then `Cc1cc([C@@H](C)Nc2ccccc2C(=O)O)c2nc(N3CCOCC3)cc(=O)n2c1` [AZD-6482], with 2.3.
Same read-out and setting: then `C[C@@H](Nc1cc(F)cc(F)c1)c1cc(C(=O)N(C)C)cc2c(=O)cc(N3CCOCC3)oc12` [AZD-8186], with 2.1; and `CCN1CCN(Cc2ccc(Nc3ncc(F)c(-c4cc(F)c5nc(C)n(C(C)C)c5c4)n3)nc2)CC1` [Abemaciclib], with 0.4.
`CN(C)Cc1c(C(=O)NCCOc2ccc(C(=O)NO)cc2)oc2ccccc12` [Abexinostat] gave a drug sensitivity score of 13.7.
In the case of `C[C@]12CC[C@H](O)CC1=CC[C@@H]1[C@@H]2CC[C@]2(C)C(c3cccnc3)=CC[C@@H]12` [Abiraterone], the drug sensitivity score was 0.
The same measure, in the same setting: then `CC#CC(=O)N1CCC[C@H]1c1nc(-c2ccc(C(=O)Nc3ccccn3)cc2)c2c(N)nccn12` [Acalabrutinib], with 0; and `COc1cc(C)c(/C=C/C(C)=C/C=C/C(C)=C/C(=O)O)c(C)c1C` [Acitretin], with 0.
Consider `CN(C)C/C=C/C(=O)Nc1cc2c(Nc3ccc(F)c(Cl)c3)ncnc2cc1O[C@H]1CCOC1` [Afatinib], for which the drug sensitivity score is 8.2.
Still for that read-out and setting: with `Cn1ncc(Cl)c1-c1cc(C(=O)N[C@H](CN)Cc2cccc(F)c2)sc1Cl` [Afuresertib] the figure was 0.8; with `COc1cccc2c1C(=O)c1c(O)c3c(c(O)c1C2=O)C[C@@](O)(/C(CO)=N/NC(=O)CCCCCN1C(=O)C=CC1=O)C[C@@H]3O[C@H]1C[C@H](N)[C@H](O)[C@H](C)O1` [Aldoxorubicin], 9.2; with `CCc1cc2c(cc1N1CCC(N3CCOCC3)CC1)C(C)(C)c1[nH]c3cc(C#N)ccc3c1C2=O` [Alectinib], 0.
On the same count and under the same terms, then `COc1cc(Nc2ncc3c(n2)-c2ccc(Cl)cc2C(c2c(F)cccc2OC)=NC3)ccc1C(=O)O` [Alisertib], with 22.5; and `Oc1ncnc2[nH]ncc12` [Allopurinol], with 0.
Molecule `Cc1nc(NC(=O)N2CCC[C@H]2C(N)=O)sc1-c1ccnc(C(C)(C)C(F)(F)F)c1` [Alpelisib] yielded a drug sensitivity score of 3.7.
With `O=C(Nc1cc(Oc2cc(F)c(NC(=O)C3(C(=O)Nc4ccc(F)cc4)CC3)cc2F)ccn1)C1CC1` [Altiratinib], the drug sensitivity score was 2.7.
The same measure, in the same setting: then `CN1CC[C@H](c2c(O)cc(O)c3c(=O)cc(-c4ccccc4Cl)oc23)[C@H](O)C1` [Alvocidib], with 14.9.
Turning to `CCN(CC)CCNC(=O)c1c(C)[nH]c(/C=C2\C(=O)Nc3ccc(-c4csc(-c5ccccc5)n4)cc32)c1C` [Amcasertib], the drug sensitivity score came to 0.
`CCC1(c2ccc(N)cc2)CCC(=O)NC1=O` (stereo unspecified) [Aminoglutethimide] showed a drug sensitivity score of 0.2.
On the same count and under the same terms, then `COc1cc(NS(C)(=O)=O)ccc1Nc1c2ccccc2nc2ccccc12` [Amsacrine], with 13.7; and `S=C(NCc1ccc2c(c1)OCO2)N1CCN(c2ncnc3c2oc2ccccc23)CC1` [Amuvatinib], with 2.1.
Same read-out and setting: with `O=C1CN2Cc3c(ccc(Cl)c3Cl)N=C2N1` [Anagrelide] the figure was 0; with `CC(C)(C#N)c1cc(Cn2cncn2)cc(C(C)(C)C#N)c1` [Anastrozole], 0; with `CNC(=O)c1ccc(N2C(=S)N(c3cnc(C#N)c(C(F)(F)F)c3)C(=O)C23CCC3)cc1F` [Apalutamide], 0.
On the same count and under the same terms, then `N#CC1(c2ccc(NC(=O)c3cccnc3NCc3ccncc3)cc2)CCCC1` [Apatinib], with 0; and `O=C(Nc1ccc(OC(F)(F)Cl)cc1)c1cnc(N2CC[C@@H](O)C2)c(-c2cc[nH]n2)c1` [Asciminib], with 0.
Consider `CC(C)c1c(C(=O)Nc2ccccc2)c(-c2ccccc2)c(-c2ccc(F)cc2)n1CC[C@@H](O)C[C@@H](O)CC(=O)O` [Atorvastatin], for which the drug sensitivity score turned out to be 0.8.
Still for that read-out and setting: then `CC(=O)OC[C@H]1O[C@@H]([S-])[C@H](OC(C)=O)[C@@H](OC(C)=O)[C@@H]1OC(C)=O.CCP(CC)CC.[Au+]` [Auranofin], with 9.3; and `CNC(=O)c1ccccc1Sc1ccc2c(/C=C/c3ccccn3)n[nH]c2c1` [Axitinib], with 5.

The subject of another test is OVCAR4. The description is as above. The note with it: exposure time: 72 h; concentration range: 5 concentrations over 10,000-fold range. Put shortly:
as §1
The molecule `COc1ccc(-c2ccc3c(N4CCOC[C@@H]4C)nc(N4CCOC[C@@H]4C)nc3n2)cc1CO` [AZD8055] gave a drug sensitivity score of 17.5.
Same read-out and setting: with `N#Cc1ccc2[nH]c(O)c(-c3ccc(CN4CCOCC4)cn3)c2c1` [AZD-1080] the figure was 0; with `Cc1ncc(-c2ccnc(Nc3ccc(S(C)(=O)=O)cc3)n2)n1C(C)C` [AZD-5438], 2.9; with `Cc1cc([C@@H](C)Nc2ccccc2C(=O)O)c2nc(N3CCOCC3)cc(=O)n2c1` [AZD-6482], 1.6.
Same read-out and setting: then `C[C@@H](Nc1cc(F)cc(F)c1)c1cc(C(=O)N(C)C)cc2c(=O)cc(N3CCOCC3)oc12` [AZD-8186], with 3.1.
Still for that read-out and setting: then `CCN1CCN(Cc2ccc(Nc3ncc(F)c(-c4cc(F)c5nc(C)n(C(C)C)c5c4)n3)nc2)CC1` [Abemaciclib], with 0.
As for `CN(C)Cc1c(C(=O)NCCOc2ccc(C(=O)NO)cc2)oc2ccccc12` [Abexinostat], the drug sensitivity score is 10.5.
Same read-out and setting: then `C[C@]12CC[C@H](O)CC1=CC[C@@H]1[C@@H]2CC[C@]2(C)C(c3cccnc3)=CC[C@@H]12` [Abiraterone], with 0.3.
On the same count and under the same terms, then `CC#CC(=O)N1CCC[C@H]1c1nc(-c2ccc(C(=O)Nc3ccccn3)cc2)c2c(N)nccn12` [Acalabrutinib], with 2.1.
Same read-out and setting: then `COc1cc(C)c(/C=C/C(C)=C/C=C/C(C)=C/C(=O)O)c(C)c1C` [Acitretin], with 0.
The molecule `CN(C)C/C=C/C(=O)Nc1cc2c(Nc3ccc(F)c(Cl)c3)ncnc2cc1O[C@H]1CCOC1` [Afatinib] gave a drug sensitivity score of 1.
`Cn1ncc(Cl)c1-c1cc(C(=O)N[C@H](CN)Cc2cccc(F)c2)sc1Cl` [Afuresertib]: the drug sensitivity score is 0.5.
Still for that read-out and setting: with `COc1cccc2c1C(=O)c1c(O)c3c(c(O)c1C2=O)C[C@@](O)(/C(CO)=N/NC(=O)CCCCCN1C(=O)C=CC1=O)C[C@@H]3O[C@H]1C[C@H](N)[C@H](O)[C@H](C)O1` [Aldoxorubicin] the figure was 3.2; with `CCc1cc2c(cc1N1CCC(N3CCOCC3)CC1)C(C)(C)c1[nH]c3cc(C#N)ccc3c1C2=O` [Alectinib], 0; with `COc1cc(Nc2ncc3c(n2)-c2ccc(Cl)cc2C(c2c(F)cccc2OC)=NC3)ccc1C(=O)O` [Alisertib], 4.9.
